Results on 33 compounds are retold here after patent US20210244721A1, “SMALL MOLECULE ENTEROVIRUS INHIBITORS AND USES THEREOF” (priority 2020, published 2021).

For series [1], the system named is EV-D68 US/KY/14-18953 virus. Briefly: CPE assay, EV-D68 US/KY/14-18953 in RD cells. It counts as cell-based, Enterovirus D68 (EV-D68). The note with it: EV-D68 US/KY/14-18953, RD cells; for EC50: Enterovirus D, EVD68, RD, CPE assay, read-out: EC50.
Series [2] in a line: Cytotoxicity, neutral red method, RD cells. As to conditions: human, RD (rhabdomyosarcoma) cells.
Series [3] relates to RD cells. Put plainly: Cytotoxicity, neutral red method, RD cells. As to conditions: RD cells, neutral red method.

`[2H]c1c([2H])c([2H])c(-c2cc(C(=O)NCC3CNC3)c3ccccc3n2)c([2H])c1[2H]` [Compound 6au, N-[(azetidin-3-yl)methyl]-2 [(2,3,4,5,6-^2H5)phenyl]quinoline-4-carboxamide]: in series [1], the “SI = selectivity index (CC50/EC50)” value is recorded as “SI50 = 29.5” and the EC50 (as a rule, the concentration that produces a half-maximal response) was 6.4 µM. Moreover, half-maximal cytotoxicity in series [2] (CC50 at 3 days) was put at 188 µM.
Turning to `CN(C)CCOC(=O)c1cc(-c2ccccc2)nc2ccccc12` [Compound 6ab, 2-(dimethylamino)ethyl 2-phenylquinoline-4-carboxylate], in series [1], the EC50 was more than 50 µM. Besides, the CC50 (commonly the concentration that lowers cell viability or growth by half) at 3 days in series [2] stood at 78.9 µM.
As for `O=C(NCC1CNC1)c1cc(-c2ccc(F)cc2)nc2ccccc12` [Compound 6az, N-[(azetidin-3-yl)methyl]-2-(4-fluorophenyl)quinoline-4-carboxamide], in series [1], the “SI = selectivity index (CC50/EC50)” value is recorded as “SI50 = 42.2” and the EC50 turned out to be 1.2 µM. Also, the midpoint of cytotoxicity in series [2], the CC50 at 3 days, lay at 50.6 µM.
Regarding `CC1(CNC(=O)c2cc(-c3ccccc3)nc3ccccc23)CNC1` [Compound 6al, N-[(3-methylazetidin-3-yl)methyl]-2-phenylquinoline-4-carboxamide], the EC50 in series [1] stood at 6.9 µM. Besides, in series [2], it took 49.5 µM to reach half-maximal cytotoxicity (CC50 at 3 days).
On to `O=C(NCC1CNC1)c1cc(-c2cccs2)nc2ccccc12` [Compound 6bn, N-[(azetidin-3-yl)methyl]-2-(thiophen-2-yl)quinoline-4-carboxamide], for which, in series [1], the “SI = selectivity index (CC50/EC50)” value is “SI50 = 23.6” and the EC50 turned out to be 1.2 µM. The same compound gave a CC50 at 3 days in series [2] of 28.3 µM.
The like results for `O=C(NC1CNC1)c1cc(-c2ccco2)nc2ccccc12` [Compound 6bq, N-(azetidin-3-yl) 2-(furan-2-yl)quinoline-4-carboxamide] were, in that order, “SI50 = 14.5”, 11.1 µM and 161 µM.
In the case of `O=C(NCCC1CCCN1)c1cc(-c2ccccc2)nc2ccccc12` (stereo not drawn) [Compound 6ai, 2-phenyl-N-[2-(pyrrolidin-2-yl)ethyl]quinoline-4-carboxamide], the EC50 in series [1] amounted to 6 µM. In series [2], this compound yielded a CC50 at 3 days of 19.1 µM.
In the case of `CNCCCNC(=O)c1cc(-c2ccccc2)nc2ccccc12` [Compound 6ac, N-[3-(methylamino)propyl]-2-phenylquinoline-4-carboxamide], in series [1], the “SI = selectivity index (CC50/EC50)” value is “SI50 = 10.5” and the EC50 was 8.9 µM. The same compound returned a CC50 at 3 days in series [2] of 93.6 µM.
Consider `O=C(NCC1(O)CNC1)c1cc(-c2ccccc2)nc2ccccc12` [Compound 6ah, N-[(3-hydroxyazetidin-3-yl)methyl]-2-phenylquinoline-4-carboxamide], for which the EC50 in series [1] came out at 5.1 µM. Also, the CC50 at 3 days in series [2] was found to be 82.2 µM.
In the case of `[2H]c1c([2H])c([2H])c(-c2cc(C(=O)NCCN)c3ccccc3n2)c([2H])c1[2H]` [Compound 6at, N-(2-aminoethyl)-2 [(2,3,4,5,6-^2H5)phenyl]quinoline-4-carboxamide], in series [1], the “SI = selectivity index (CC50/EC50)” value is listed as “SI50 = 45.6” and the EC50 was determined as 2.2 µM. The same compound came in with a CC50 at 3 days in series [2] of 100 µM.
The like results for `O=C(NCC1CCCNC1)c1cc(-c2ccccc2)nc2ccccc12` (stereo not drawn) [Compound 6am] were, in that order, “SI50 = 4.2”, 7.1 µM and 30.1 µM.
The like results for `CC(CN)NC(=O)c1cc(-c2ccccc2)nc2ccccc12` (stereo not drawn) [Compound 6ap, N-(1-aminopropan-2-yl)-2-phenylquinoline-4-carboxamide] were, in that order, “SI50 = 74.3”, 1.2 µM and 89.1 µM.
For the compound `O=C(NCC1CNC1)c1cc(-c2ccco2)nc2ccccc12` [Compound 6br, N-[(azetidin-3-yl)methyl]-2-(furan-2-yl)quinoline-4-carboxamide], in series [1], the “SI = selectivity index (CC50/EC50)” value was “SI50 = 14.8” and the EC50 amounted to 11.5 µM. Further, the CC50 at 3 days in series [2] was determined as 170 µM.
The like results for `N=C(N)NCCNC(=O)c1cc(-c2ccccc2)nc2ccccc12` [Compound 6ao, N-(2-carbamimidamidoethyl)-2-phenylquinoline-4-carboxamide] were, in that order, “SI50 >60.6”, 3.3 µM and more than 200 µM.
On the same counts, the results for `CN1CC(NC(=O)c2cc(-c3cccs3)nc3ccccc23)C1` [Compound 6bh, N-(1-methylazetidin-3-yl)-2-(thiophen-2-yl)quinoline-4-carboxamide] are “SI50 = 42.6”, 1 µM and 42.6 µM.
As for `CN(C)CCNC(=O)c1cc(-c2c(F)cc(F)cc2F)nc2ccccc12` [Compound 6bc, N-[2-(dimethylamino)ethyl]-2-(2,4,6-trifluorophenyl)quinoline-4-carboxamide], in series [1], the “SI = selectivity index (CC50/EC50)” value is listed as “SI50 = 10.9” and the EC50 is 3.6 µM. This compound also had a CC50 at 3 days in series [2] of 39.2 µM.
`CC(C)Oc1cc(C(=O)NCCN2CCOCC2)c2ccccc2n1` [Compound 8d, N-[2-(morpholin-4-yl)ethyl]-2-(propan-2-yloxy)quinoline-4-carboxamide]: the “SI = selectivity index (CC50/EC50)” value in series [1] is more than 14.3. The CC50 in series [3] was more than 250 µM.
Consider `CCN(CC)CCNC(=O)c1cc(OC)nc2ccccc12` [Compound 5a, N-[2-(diethylamino)ethyl]-2-methoxyquinoline-4-carboxamide], for which the “SI = selectivity index (CC50/EC50)” value in series [1] is more than 4.8. Moreover, the CC50 in series [3] was more than 250 µM.
As for `CN(C)CCNC(=O)c1cc(-c2c(F)c(F)c(F)c(F)c2F)nc2ccccc12` [Compound 6be, N-[2-(dimethylamino)ethyl]-2-(2,3,4,5,6-pentafluorophenyl)quinoline-4-carboxamide], in series [1], the “SI = selectivity index (CC50/EC50)” value is “SI50 = 13.7” and the EC50 was determined as 10.8 µM. The CC50 at 3 days in series [2] came to 148 µM.
Take `NCCNC(=O)c1cc(-c2ccccc2)nc2ccccc12` [Compound 6an, N-(2-aminoethyl)-2-phenylquinoline-4-carboxamide]: in series [1], the “SI = selectivity index (CC50/EC50)” value was “SI50 = 37.4” and the concentration giving a half-maximal response (EC50) was 1.2 µM. Besides, the CC50 at 3 days in series [2] was found to be 44.9 µM.
Turning to `CN(C)CCNC(=O)c1cc(-c2c(F)cccc2F)nc2ccccc12` [Compound 6bb, 2-(2,6-difluorophenyl)-N-[2-(dimethylamino)ethyl]quinoline-4-carboxamide], in series [1], the “SI = selectivity index (CC50/EC50)” value is reported as “SI50 = 7.7” and the EC50 was determined as 12.1 µM. This compound displayed a CC50 at 3 days in series [2] of 93 µM.
As to `O=C(NC1CNC1)c1cc(-c2ccccc2)nc2ccccc12` [Compound 6aj, N-(azetidin-3-yl)-2-phenylquinoline-4-carboxamide], the concentration giving a half-maximal response (EC50) in series [1] turned out to be 4.2 µM. The same compound had a CC50 at 3 days in series [2] of 36.6 µM.
As for `NCCNC(=O)c1cc(-c2ccco2)nc2c(Cl)cccc12` [Compound 6bs, N-(2-aminoethyl)-8-chloro-2-(furan-2-yl)quinoline-4-carboxamide], in series [1], the “SI = selectivity index (CC50/EC50)” value is on record as “SI50 = 50.5” and the EC50 is 1 µM. Moreover, the CC50 at 3 days in series [2] was determined as 50.5 µM.
For `NCCNC(=O)c1cc(-c2ccco2)nc2ccccc12` [Compound 6bp, N-(2-aminoethyl)-2-(furan-2-yl)quinoline-4-carboxamide], in series [1], the “SI = selectivity index (CC50/EC50)” value is reported as “SI50 = 33.4” and the EC50 came to 4.4 µM. This compound displayed a CC50 at 3 days in series [2] of 147 µM.
The like results for `[2H]c1c([2H])c([2H])c(-c2cc(C(=O)NCCNC)c3ccccc3n2)c([2H])c1[2H]` [Compound 6as, N-[2-(methylamino)ethyl]-2 [(2,3,4,5,6-^2H5)phenyl]quinoline-4-carboxamide] were, in that order, “SI50 = 91.6”, 1.1 µM and 101 µM.
For `NNC(=O)c1cc(-c2ccccc2)nc2ccccc12` [Compound 10d, 2-phenylquinoline-4-carbohydrazide], the “SI = selectivity index (CC50/EC50)” value in series [1] was more than 3. In series [3], this compound yielded a CC50 of more than 300 µM.
As for `NCCCNC(=O)c1cc(-c2ccccc2)nc2ccccc12` [Compound 6ad, N-(3-aminopropyl)-2-phenylquinoline-4-carboxamide], in series [1], the “SI = selectivity index (CC50/EC50)” value is recorded as “SI50 = 23.4” and the EC50 is 7.2 µM. The CC50 at 3 days in series [2] was 168 µM.
With `O=C(NCC1CNC1)c1cc(-c2ccccc2)nc2ccccc12` [Compound 6ag, N-[(azetidin-3-yl)methyl]-2-phenylquinoline-4-carboxamide], in series [1], the EC50 was determined as 5.8 µM. Moreover, in series [2], the CC50 at 3 days worked out at 43.2 µM.
As to `NNC(=O)c1cc(-c2cccs2)nc2ccccc12` [Compound 12e, 2-(thiophen-2-yl)quinoline-4-carbohydrazide], the “SI = selectivity index (CC50/EC50)” value in series [1] was more than 8.4. The compound further had a CC50 in series [3] of more than 100 µM.
Take `CC(CN)NC(=O)c1cc(-c2cccs2)nc2ccccc12` (stereo not drawn) [Compound 6bm, N-(1-aminopropan-2-yl)-2-(thiophen-2-yl)quinoline-4-carboxamide]: in series [1], the “SI = selectivity index (CC50/EC50)” value was “SI50 = 47.6” and the EC50 turned out to be 0.5 µM. The compound further displayed a CC50 at 3 days in series [2] of 23.8 µM.
On the same counts, the results for `O=C(NC1CNC1)c1cc(-c2ccc(F)cc2)nc2ccccc12` [Compound 6ay, N-(azetidin-3-yl)-2-(4-fluorophenyl)quinoline-4-carboxamide] are “SI50 = 42.5”, 1.1 µM and 46.7 µM.
Take `CN(C)CCNC(=O)c1cc(-c2cc(F)c(F)c(F)c2)nc2ccccc12` [Compound 6bd, N-[2-(dimethylamino)ethyl]-2-(3,4,5-trifluorophenyl)quinoline-4-carboxamide]: the EC50 in series [1] is more than 300 µM. This compound yielded a CC50 at 3 days in series [2] of 38 µM.
On the same counts, the results for `CN1CC(NC(=O)c2cc(-c3ccccc3)nc3ccccc23)C1` [Compound 6ak, N-(1-methylazetidin-3-yl)-2-phenylquinoline-4-carboxamide] are 2.9 µM and 46.8 µM.
